The values below come from ChEMBL document CHEMBL4699611, “Synthesis and evaluation of HIF-1α inhibitory activities of novel panaxadiol derivatives” (Bioorg Med Chem Lett, 2020).

What all share (format): cell-based
The target of series [1] is Hypoxia-inducible factor 1-alpha (Homo sapiens, UniProt Q16665). The series is described as follows: Inhibition of hypoxia-induced HIF1alpha transcriptional activity in human Hep3B cells co-transfected with luciferase reporter plasmid containing six copies of HREs and pRL-CMV vector assessed as reduction in luciferase activity incubated for 24 hrs under hypoxic condition by HRE-dependent dual luciferase reporter gene assay. (In general: A reporter such as luciferase makes a cellular process visible.)

For series [2], the system named is Hep 3B2. Briefly: Cytotoxicity against human Hep3B cells assessed as reduction in cell viability incubated for 24 hrs under normaxic condition by MTT assay.
Series [3] relates to Hep 3B2. Briefly: Cytotoxicity against human Hep3B cells assessed as reduction in cell viability at 30 uM incubated for 24 hrs in presence of 20% O2 by MTT assay. The following applies: hep 3b2, 24 h. On the technique in general: Formazan colour is commonly taken as a measure of viable cells.

The term IC50 denotes the concentration needed to halve the response being measured. Take `CC1(C)CCC[C@](C)([C@H]2CC[C@]3(C)[C@@H]2[C@H](O)C[C@@H]2[C@@]4(C)CC/C(=N\Nc5ccc(F)cc5F)C(C)(C)[C@@H]4CC[C@]23C)O1`: the IC50 in series [1] is 12.8 µM; with Hep 3B2 [2] it was above 100 µM.

For the molecule `CC1(C)CCC[C@](C)([C@H]2CC[C@]3(C)[C@@H]2[C@H](O)C[C@@H]2[C@@]4(C)CC/C(=N\Nc5ccc(Cl)cc5Cl)C(C)(C)[C@@H]4CC[C@]23C)O1`, in series [1], the IC50 stood at 3.7 µM and the inhibition entry is “Dose-dependent effect”. The IC50 in the series on Hep 3B2 [2] was above 100 µM. Further, the Activity entry in the series with Hep 3B2 [3] is listed as “Non-Toxic”.

`CC1(C)CCC[C@](C)([C@H]2CC[C@]3(C)[C@@H]2[C@H](O)C[C@@H]2[C@@]4(C)CC(=C\c5ccc(F)cc5)/C(=N\NC(N)=S)C(C)(C)[C@@H]4CC[C@]23C)O1`: the IC50 in series [1] is 9 µM; in the series with Hep 3B2 [2], 24.1 µM.

Take `CC1(C)CCC[C@](C)([C@H]2CC[C@]3(C)[C@@H]2[C@H](O)C[C@@H]2[C@@]4(C)CC[C@H](O)C(C)(C)[C@@H]4CC[C@]23C)O1` [PANAXADIOL]: the IC50 in series [1] is 9.1 µM; in the series with Hep 3B2 [2], 31.7 µM.

Regarding `CC1(C)CCC[C@](C)([C@H]2CC[C@]3(C)[C@@H]2[C@H](O)C[C@@H]2[C@@]4(C)CC/C(=N\Nc5ccccc5F)C(C)(C)[C@@H]4CC[C@]23C)O1`, the values for the IC50 (in series [1]; in the series on Hep 3B2 [2]) were 10.1 µM and above 100 µM, respectively.

`Cc1ccc(/C=C2\C[C@]3(C)[C@H]4C[C@@H](O)[C@@H]5[C@@H]([C@@]6(C)CCCC(C)(C)O6)CC[C@@]5(C)[C@]4(C)CC[C@H]3C(C)(C)\C2=N\NC(N)=O)cc1`: the half-maximal inhibitory concentration (IC50) was determined as 9.8 µM in series [1] and 4.1 µM in the series with Hep 3B2 [2].

Consider `CC1(C)CCC[C@](C)([C@H]2CC[C@]3(C)[C@@H]2[C@H](O)C[C@@H]2[C@@]4(C)CC(=C\c5cccc(F)c5)/C(=N\NC(N)=O)C(C)(C)[C@@H]4CC[C@]23C)O1`, for which the IC50 was 3.5 µM in series [1] and 5.2 µM in the series with Hep 3B2 [2].

For the molecule `CC1(C)CCC[C@](C)([C@H]2CC[C@]3(C)[C@@H]2[C@H](O)C[C@@H]2[C@@]4(C)CC/C(=N\Nc5cccc([N+](=O)[O-])c5)C(C)(C)[C@@H]4CC[C@]23C)O1`, the IC50 is 61.2 µM in series [1] and above 100 µM in the series with Hep 3B2 [2].

In the case of `CC1(C)CCC[C@](C)([C@H]2CC[C@]3(C)[C@@H]2[C@H](O)C[C@@H]2[C@@]4(C)CC(=C\c5ccc(Cl)cc5)/C(=N\NC(N)=O)C(C)(C)[C@@H]4CC[C@]23C)O1`, the IC50 in series [1] amounted to 5.5 µM; in the series with Hep 3B2 [2], 11.3 µM.

As for `Cc1ccc(N/N=C2\CC[C@]3(C)[C@H]4C[C@@H](O)[C@@H]5[C@@H]([C@@]6(C)CCCC(C)(C)O6)CC[C@@]5(C)[C@]4(C)CC[C@H]3C2(C)C)cc1`, the results for the IC50 (in series [1]; in the series on Hep 3B2 [2]) were 7.1 µM and above 100 µM, respectively.

Regarding `CC1(C)CCC[C@](C)([C@H]2CC[C@]3(C)[C@@H]2[C@H](OC(=O)Cn2nnnc2-c2ccc4c(c2)OCO4)C[C@@H]2[C@@]4(C)CCC(=O)C(C)(C)[C@@H]4CC[C@]23C)O1`, the IC50 was 40.9 µM in series [1] and above 100 µM in the series with Hep 3B2 [2].

Consider `CC1(C)CCC[C@](C)([C@H]2CC[C@]3(C)[C@@H]2[C@H](O)C[C@@H]2[C@@]4(C)CC(=C\c5ccc(F)cc5)/C(=N\NC(N)=O)C(C)(C)[C@@H]4CC[C@]23C)O1`, for which the IC50 in series [1] was 11.7 µM; in the series on Hep 3B2 [2], above 100 µM.

As to `COc1ccc(-c2nnnn2CC(=O)O[C@@H]2C[C@@H]3[C@@]4(C)CCC(=O)C(C)(C)[C@@H]4CC[C@@]3(C)[C@]3(C)CC[C@H]([C@@]4(C)CCCC(C)(C)O4)[C@@H]23)cc1`, the IC50 (in series [1]; in the series with Hep 3B2 [2]) was above 100 µM each time.

With `CC1(C)CCC[C@](C)([C@H]2CC[C@]3(C)[C@@H]2[C@H](OC(=O)CNc2nnn[nH]2)C[C@@H]2[C@@]4(C)CCC(=O)C(C)(C)[C@@H]4CC[C@]23C)O1`, the IC50 in series [1] is 36.2 µM; in the series with Hep 3B2 [2], above 100 µM.

Take `CC1(C)CCC[C@](C)([C@H]2CC[C@]3(C)[C@@H]2[C@H](O)C[C@@H]2[C@@]4(C)CC/C(=N\Nc5ccccc5Cl)C(C)(C)[C@@H]4CC[C@]23C)O1`: the IC50 (in series [1]; with Hep 3B2 [2]) was above 100 µM in each case.

As for `Cc1ccccc1N/N=C1\CC[C@]2(C)[C@H]3C[C@@H](O)[C@@H]4[C@@H]([C@@]5(C)CCCC(C)(C)O5)CC[C@@]4(C)[C@]3(C)CC[C@H]2C1(C)C`, the IC50 was 24.9 µM in series [1] and above 100 µM in the series with Hep 3B2 [2].

Regarding `Cc1cccc(N/N=C2\CC[C@]3(C)[C@H]4C[C@@H](O)[C@@H]5[C@@H]([C@@]6(C)CCCC(C)(C)O6)CC[C@@]5(C)[C@]4(C)CC[C@H]3C2(C)C)c1`, the IC50 in series [1] was 56.5 µM; in the series with Hep 3B2 [2], above 100 µM.

Take `CC1(C)CCC[C@](C)([C@H]2CC[C@]3(C)[C@@H]2[C@H](O)C[C@@H]2[C@@]4(C)CC(=C\c5ccc(Cl)cc5)/C(=N\NC(N)=S)C(C)(C)[C@@H]4CC[C@]23C)O1`: the IC50 (in series [1]; in the series on Hep 3B2 [2]) was above 100 µM each time.

As to `CC1(C)CCC[C@](C)([C@H]2CC[C@]3(C)[C@@H]2[C@H](O)C[C@@H]2[C@@]4(C)CC/C(=N\Nc5ccc(Cl)cc5)C(C)(C)[C@@H]4CC[C@]23C)O1`, the IC50 was 26 µM in series [1] and above 100 µM in the series on Hep 3B2 [2].

On to `CC1(C)CCC[C@](C)([C@H]2CC[C@]3(C)[C@@H]2[C@H](O)C[C@@H]2[C@@]4(C)CC(=C\c5ccccc5F)/C(=N\NC(N)=O)C(C)(C)[C@@H]4CC[C@]23C)O1`, for which the IC50 in series [1] was 5.9 µM; in the series with Hep 3B2 [2], 5.6 µM.

Regarding `CC1(C)CCC[C@](C)([C@H]2CC[C@]3(C)[C@@H]2[C@H](O)C[C@@H]2[C@@]4(C)CC/C(=N\Nc5cccc(F)c5)C(C)(C)[C@@H]4CC[C@]23C)O1`, the figures for the IC50 (in series [1]; with Hep 3B2 [2]) were 67 µM and above 100 µM, respectively.

Consider `COc1ccc(/C=C2\C[C@]3(C)[C@H]4C[C@@H](O)[C@@H]5[C@@H]([C@@]6(C)CCCC(C)(C)O6)CC[C@@]5(C)[C@]4(C)CC[C@H]3C(C)(C)\C2=N\NC(=N)N)cc1`, for which the IC50 in series [1] is 5.8 µM; with Hep 3B2 [2], 6.1 µM.

On to `CC1(C)CCC[C@](C)([C@H]2CC[C@]3(C)[C@@H]2[C@H](O)C[C@@H]2[C@@]4(C)CC/C(=N\Nc5ccc(F)cc5)C(C)(C)[C@@H]4CC[C@]23C)O1`, for which the IC50 in series [1] was 21.4 µM; with Hep 3B2 [2] it was above 100 µM.

With `CC1(C)CCC[C@](C)([C@H]2CC[C@]3(C)[C@@H]2[C@H](O)C[C@@H]2[C@@]4(C)CC/C(=N\Nc5cccc(Cl)c5)C(C)(C)[C@@H]4CC[C@]23C)O1`, the IC50 in series [1] was 36.7 µM; with Hep 3B2 [2], above 100 µM.

For the molecule `Cc1ccc(/C=C2\C[C@]3(C)[C@H]4C[C@@H](O)[C@@H]5[C@@H]([C@@]6(C)CCCC(C)(C)O6)CC[C@@]5(C)[C@]4(C)CC[C@H]3C(C)(C)\C2=N\NC(=N)N)cc1`, the IC50 in series [1] stood at 37.7 µM; in the series on Hep 3B2 [2] it was 11.3 µM.

Consider `CC1(C)CCC[C@](C)([C@H]2CC[C@]3(C)[C@@H]2[C@H](OC(=O)CNc2cccc(-c4nnn[nH]4)c2)C[C@@H]2[C@@]4(C)CCC(=O)C(C)(C)[C@@H]4CC[C@]23C)O1`, for which the IC50 (in series [1]; in the series on Hep 3B2 [2]) was above 100 µM each time.

For `Cc1ccc(/C=C2\C[C@]3(C)[C@H]4C[C@@H](O)[C@@H]5[C@@H]([C@@]6(C)CCCC(C)(C)O6)CC[C@@]5(C)[C@]4(C)CC[C@H]3C(C)(C)\C2=N\NC(N)=S)cc1`, the values for the IC50 (in series [1]; in the series on Hep 3B2 [2]) were 6.1 µM and 43.1 µM, respectively.

On to `CC1(C)CCC[C@](C)([C@H]2CC[C@]3(C)[C@@H]2[C@H](OC(=O)Cn2nnnc2-c2ccc(Cl)cc2)C[C@@H]2[C@@]4(C)CCC(=O)C(C)(C)[C@@H]4CC[C@]23C)O1`, for which the IC50 in series [1] came out at 12.4 µM; in the series on Hep 3B2 [2] it was 42.9 µM.

In the case of `CC1(C)CCC[C@](C)([C@H]2CC[C@]3(C)[C@@H]2[C@H](OC(=O)Cn2nnnc2-c2ccccc2)C[C@@H]2[C@@]4(C)CCC(=O)C(C)(C)[C@@H]4CC[C@]23C)O1`, the IC50 (in series [1]; with Hep 3B2 [2]) was above 100 µM each time.

Consider `CC1(C)CCC[C@](C)([C@H]2CC[C@]3(C)[C@@H]2[C@H](O)C[C@@H]2[C@@]4(C)CC(=C\c5ccc(O)cc5)/C(=N\NC(=N)N)C(C)(C)[C@@H]4CC[C@]23C)O1`, for which the values for the IC50 (in series [1]; in the series with Hep 3B2 [2]) were 6.2 µM and 6.3 µM, respectively.

Turning to `CC1(C)CCC[C@](C)([C@H]2CC[C@]3(C)[C@@H]2[C@H](O)C[C@@H]2[C@@]4(C)CC(=C\c5ccc(F)cc5)/C(=N\NC(=N)N)C(C)(C)[C@@H]4CC[C@]23C)O1`, the values for the IC50 (in series [1]; with Hep 3B2 [2]) were 4.8 µM and above 100 µM, respectively.
